Measurements reported in the CheMixHub viscosity set.

Assay: xn = mol fraction of the nth substance listed

COCCOC + O
Settings	viscosity [mPa·s]
298 K, 101 kPa, x2 = 0.222	0.5134
298 K, 101 kPa, x2 = 0.353	0.6057
298 K, 101 kPa, x2 = 0.3777	0.6324
298 K, 101 kPa, x2 = 0.4685	0.7626
298 K, 101 kPa, x2 = 0.5569	0.943
298 K, 101 kPa, x2 = 0.711	1.481
298 K, 101.3 kPa, x1 = 0.019	1.166
298 K, 101.3 kPa, x1 = 0.0608	1.748
298 K, 101.3 kPa, x1 = 0.1011	2.092
298 K, 101.3 kPa, x1 = 0.1521	2.104
298 K, 101.3 kPa, x1 = 0.1999	1.935
298 K, 101.3 kPa, x1 = 0.2992	1.432
298 K, 101.3 kPa, x1 = 0.4048	1.074
298 K, 101.3 kPa, x1 = 0.597	0.684
298 K, 101.3 kPa, x1 = 0.801	0.506
298.15 K, 101.33 kPa, x1 = 0.007	1.018
298.15 K, 101.33 kPa, x1 = 0.0184	1.189
298.15 K, 101.33 kPa, x1 = 0.0306	1.376
298.15 K, 101.33 kPa, x1 = 0.0542	1.712
298.15 K, 101.33 kPa, x1 = 0.0775	1.968
298.15 K, 101.33 kPa, x1 = 0.1063	2.146
298.15 K, 101.33 kPa, x1 = 0.1301	2.252
298.15 K, 101.33 kPa, x1 = 0.1654	2.164
298.15 K, 101.33 kPa, x1 = 0.2002	2.001
298.15 K, 101.33 kPa, x1 = 0.2402	1.782
298.15 K, 101.33 kPa, x1 = 0.2886	1.55
298.15 K, 101.33 kPa, x1 = 0.3482	1.256
298.15 K, 101.33 kPa, x1 = 0.3836	1.128
298.15 K, 101.33 kPa, x1 = 0.4226	1.005
298.15 K, 101.33 kPa, x1 = 0.4689	0.886
298.15 K, 101.33 kPa, x1 = 0.5203	0.78
298.15 K, 101.33 kPa, x1 = 0.5617	0.707
298.15 K, 101.33 kPa, x1 = 0.613	0.638
298.15 K, 101.33 kPa, x1 = 0.6418	0.605
298.15 K, 101.33 kPa, x1 = 0.6575	0.586
298.15 K, 101.33 kPa, x1 = 0.7264	0.536
298.15 K, 101.33 kPa, x1 = 0.8227	0.491
298.15 K, 101.33 kPa, x1 = 0.8646	0.471
298.15 K, 101.33 kPa, x1 = 0.9633	0.433
303.15 K, 101 kPa, x1 = 0.0471	1.344
303.15 K, 101 kPa, x1 = 0.0951	1.725
303.15 K, 101 kPa, x1 = 0.1421	1.837
303.15 K, 101 kPa, x1 = 0.1877	1.726
303.15 K, 101 kPa, x1 = 0.2322	1.562
303.15 K, 101 kPa, x1 = 0.277	1.373
303.15 K, 101 kPa, x1 = 0.3598	1.093
303.15 K, 101 kPa, x1 = 0.4455	0.8759
303.15 K, 101 kPa, x1 = 0.5389	0.7129
303.15 K, 101 kPa, x1 = 0.6952	0.5462
303.15 K, 101 kPa, x1 = 0.803	0.4759
303.15 K, 101 kPa, x1 = 0.9001	0.4317
308.15 K, 101 kPa, x1 = 0.0471	1.174
308.15 K, 101 kPa, x1 = 0.0951	1.487
308.15 K, 101 kPa, x1 = 0.1421	1.583
308.15 K, 101 kPa, x1 = 0.1877	1.493
308.15 K, 101 kPa, x1 = 0.2322	1.375
308.15 K, 101 kPa, x1 = 0.277	1.214
308.15 K, 101 kPa, x1 = 0.3598	0.98
308.15 K, 101 kPa, x1 = 0.4455	0.7944
308.15 K, 101 kPa, x1 = 0.5389	0.6553
308.15 K, 101 kPa, x1 = 0.6952	0.5103
308.15 K, 101 kPa, x1 = 0.803	0.448
308.15 K, 101 kPa, x1 = 0.9001	0.4079
313.15 K, 101 kPa, x1 = 0.0471	1.035
313.15 K, 101 kPa, x1 = 0.0951	1.302
313.15 K, 101 kPa, x1 = 0.1421	1.377
313.15 K, 101 kPa, x1 = 0.1877	1.308
313.15 K, 101 kPa, x1 = 0.2322	1.211
313.15 K, 101 kPa, x1 = 0.277	1.081
313.15 K, 101 kPa, x1 = 0.3598	0.886
313.15 K, 101 kPa, x1 = 0.4455	0.7267
313.15 K, 101 kPa, x1 = 0.5389	0.6061
313.15 K, 101 kPa, x1 = 0.6952	0.4784
313.15 K, 101 kPa, x1 = 0.803	0.4217
313.15 K, 101 kPa, x1 = 0.9001	0.3865
318.15 K, 101 kPa, x1 = 0.0471	0.9228
318.15 K, 101 kPa, x1 = 0.0951	1.143
318.15 K, 101 kPa, x1 = 0.1421	1.208
318.15 K, 101 kPa, x1 = 0.1877	1.157
318.15 K, 101 kPa, x1 = 0.2322	1.07
318.15 K, 101 kPa, x1 = 0.277	0.9692
318.15 K, 101 kPa, x1 = 0.3598	0.8048
318.15 K, 101 kPa, x1 = 0.4455	0.6672
318.15 K, 101 kPa, x1 = 0.5389	0.5616
318.15 K, 101 kPa, x1 = 0.6952	0.4497
318.15 K, 101 kPa, x1 = 0.803	0.3986
318.15 K, 101 kPa, x1 = 0.9001	0.367
323.15 K, 101 kPa, x1 = 0.0471	0.8291
323.15 K, 101 kPa, x1 = 0.0951	1.013
323.15 K, 101 kPa, x1 = 0.1421	1.07
323.15 K, 101 kPa, x1 = 0.1877	1.034
323.15 K, 101 kPa, x1 = 0.2322	0.9565
323.15 K, 101 kPa, x1 = 0.277	0.8719
323.15 K, 101 kPa, x1 = 0.3598	0.7336
323.15 K, 101 kPa, x1 = 0.4455	0.6155
323.15 K, 101 kPa, x1 = 0.5389	0.5232
323.15 K, 101 kPa, x1 = 0.6952	0.4226
323.15 K, 101 kPa, x1 = 0.803	0.3769
323.15 K, 101 kPa, x1 = 0.9001	0.3479
